Source: publication PMC7412237, “Competition NMR for Detection of Hit/Lead Inhibitors of Protein–Protein Interactions” (Molecules, 2020)

How the values were obtained:
MdmX = target: T1, MdmX (Homo sapiens, UniProt O15151); test: Fluorescence polarization competition assay (displacement of P2 peptide), MdmX; settings: read-out: Ki towards MdmX; FP assay
T1 sequence (O15151 18-111): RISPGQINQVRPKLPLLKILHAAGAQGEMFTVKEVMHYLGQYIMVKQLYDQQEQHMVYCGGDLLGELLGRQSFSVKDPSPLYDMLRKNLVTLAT

PD-1/PD-L1 complex = target: T2, PD-1/PD-L1 complex (Homo sapiens, UniProt Q9NZQ7); settings: ref [59]; cited from earlier work
T2 construct: made in house; host or cells: E. coli BL21 (DE3)

effector T cells = settings: T cells attenuated by soluble and membrane-bound PD-L1; ref [59]; cited from earlier work
(N66A)PD-1/PD-L1 complex = target: T3, (N66A)PD-1/PD-L1 complex (Homo sapiens, UniProt Q9NZQ7); test: w-AIDA-NMR on (N66A)PD-1/PD-L1 complex; assay type: binding
T3 construct: made in house; host or cells: E. coli BL21 (DE3)
T3 sequence (Q9NZQ7 18-134, stated change not applied, one chain of several): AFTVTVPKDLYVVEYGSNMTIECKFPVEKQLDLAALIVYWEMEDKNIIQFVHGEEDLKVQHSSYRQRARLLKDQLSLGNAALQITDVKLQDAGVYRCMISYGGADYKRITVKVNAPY

T2 sequence (Q9NZQ7 18-134, one chain of several): as the sequence (Q9NZQ7 18-134, stated change not applied, one chain of several) above

Ki (MdmX)	Structure (SMILES)	Dissociation of human PD-1/PD-L1 complex in vitro (PD-1/PD-L1 complex)	Activation of effector T cells (effector T cells)	Recovery of PD-1 signals in 1D 1H-NMR spectra ((N66A)PD-1/PD-L1 complex; (N66A)PD-1/PD-L1 complex, molar ratio 1:1)	Dissociation of (N66A)PD-1/PD-L1 complex (recovery of 2D HMQC signals) ((N66A)PD-1/PD-L1 complex; equimolar amount of compound)
27 µM	CC(C)(C)NC(=O)C(c1c(C(=O)O)[nH]c2cc(Cl)ccc12)N(C=O)Cc1cc(F)cc(F)c1F (centres unmarked) [compound 4]	–	–	–	–
–	Cc1c(COc2cc(OCc3cccc(C#N)c3)c(CN3C[C@H](O)C[C@@H]3C(=O)O)cc2Cl)cccc1-c1ccc2c(c1)OCCO2 [BMS-1166]	efficiently dissociates the human PD-1/PD-L1 complex in vitro	activates the effector T cells	full recovery of the PD-1 signals	full recovery of 2D HMQC spectrum
